Test results taken from patent US20190330224A1, “ACC INHIBITORS AND USES THEREOF” (Gilead Apollo, LLC, priority 2015, published 2019).
In brackets after ≈: the same amount, converted by molar mass.

What was measured:
[1] = compound concentration 10 ppm, foliar spray, evaluated 7 days after inoculation
[2] = molecular target: Human ACC2 (Homo sapiens, UniProt O00763); experiment: In vitro ACC2 inhibition assay (ADP-Glo), human ACC2; format: biochemical; conditions: 5 nM ACC2, 20 μM ATP, 20 μM acetyl-CoA
[3] = tested on: C. albicans ATCC 90028; experiment: Anti-Fungal Activity Assay (broth microtiter MIC), C. albicans; format: cell-based, Candida albicans; conditions: Candida albicans, ATCC90028, 48 h, 3 replicates; MIC recorded at 48 h; read-out: MIC C. albicans ATCC 90028
Procedure, shortened: (§1)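 MIC taken as visual growth inhibition versus the growth control, mostly at 48 h (soraphen also at 24 h). Following CLSI M27-A3, colonies grown overnight at 35° C on Sabouraud dextrose agar were suspended in RPMI 1640+MOPS; test agents came from 1 mg/mL DMSO stocks.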

[4] = tested on: C. krusei ATCC 6258; experiment: Anti-Fungal Activity Assay (broth microtiter MIC), C. krusei; format: cell-based, Candida krusei; conditions: Pichia kudriavzevii, ATCC6258, 48 h, 3 replicates; MIC recorded at 48 h; read-out: MIC C. krusei ATCC 6258
Procedure, shortened: as §1

[5] = tested on: C. parapsilosis ATCC 22019; experiment: Anti-Fungal Activity Assay (broth microtiter MIC), C. parapsilosis; format: cell-based, Candida parapsilosis; conditions: Lodderomyces parapsilosis, ATCC22019, 48 h, 3 replicates; MIC recorded at 48 h; read-out: MIC C. parapsilosis ATCC 22019
Procedure, shortened: as §1

[6] = tested on: Botrtyis cinerea (Bc); experiment: Growth inhibition assay of fungal pathogens, Bc; format: cell-based; conditions: 48 hours; read-out: Concentration at 90% Inhibition, Bc
Procedure, shortened: (§2)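 Spores in 17% V8 liquid medium were exposed to compound at final 50, 10 and 2 ppm or 2, 0.4 and 0.08 ppm with 2% DMSO. After 48 h, OD600 (blank-subtracted) and visual ratings were compared with the 2% DMSO control to give percent growth inhibition.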

[7] = tested on: Collectotrichum graminicola (Cg); experiment: Growth inhibition assay of fungal pathogens, Cg; format: cell-based; conditions: 48 hours; read-out: Concentration at 90% Inhibition, Cg
Procedure, shortened: as §2

[8] = tested on: Diplodia maydis (Dm); experiment: Growth inhibition assay of fungal pathogens, Dm; format: cell-based; conditions: Stenocarpella maydis; 48 hours; read-out: Concentration at 90% Inhibition, Dm
Procedure, shortened: as §2

[9] = tested on: Fusarium moniliforme (Fm); experiment: Growth inhibition assay of fungal pathogens, Fm; format: cell-based; conditions: Fusarium verticillioides; 48 hours; read-out: Concentration at 90% Inhibition, Fm
Procedure, shortened: as §2

[10] = tested on: Fusarium virguliforme (Fv); experiment: Growth inhibition assay of fungal pathogens, Fv; format: cell-based; conditions: 48 hours, read-out: Concentration at 90% Inhibition, Fv
Procedure, shortened: as §2

[11] = tested on: Phytophthora capsici (Pc); experiment: Growth inhibition assay of fungal pathogens, Pc; format: cell-based; conditions: 48 hours, read-out: Concentration at 90% Inhibition, Pc
Procedure, shortened: as §2

[12] = tested on: Rhizoctonia solani (Rs); experiment: Growth inhibition assay of fungal pathogens, Rs; format: cell-based; conditions: 48 hours, read-out: Concentration at 90% Inhibition, Rs
[13] = tested on: Septoria tritici (St); experiment: Growth inhibition assay of fungal pathogens, St; format: cell-based; conditions: Zymoseptoria tritici; 48 hours; read-out: Concentration at 90% Inhibition, St
Procedure, shortened: as §2

[14] = tested on: Blumeria graminis f sp. hordei; experiment: Foliar protection test, barley powdery mildew control; format: in vivo, Blumeria graminis f sp. hordei on Hordeum vulgare cv. Perry; conditions: 168 h, compound concentration 50 ppm, foliar spray, evaluated 7 days after inoculation, read-out: Barley Powdery Mildew Control at 50 ppm
Procedure, shortened: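 Barley cv. Perry at first true leaf (6 days) sprayed to wetness on both leaf sides with compound in 5% acetone/0.005% Tween 80, typically at 200, 100, 50, 10 or 2 ppm. Inoculated 24 h later by shaking spores from colonized plants; kept at 20-22 °C, 70% RH. Mildew colonization scored 7 days later as percent control.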

[15] = molecular target: Fungal ACC2 (UniProt Q00955); conditions: read-out: Fungal ACC2 (IC50, in vitro ACC2 inhibition)
Chain of Fungal ACC2 (Q00955 whole entry): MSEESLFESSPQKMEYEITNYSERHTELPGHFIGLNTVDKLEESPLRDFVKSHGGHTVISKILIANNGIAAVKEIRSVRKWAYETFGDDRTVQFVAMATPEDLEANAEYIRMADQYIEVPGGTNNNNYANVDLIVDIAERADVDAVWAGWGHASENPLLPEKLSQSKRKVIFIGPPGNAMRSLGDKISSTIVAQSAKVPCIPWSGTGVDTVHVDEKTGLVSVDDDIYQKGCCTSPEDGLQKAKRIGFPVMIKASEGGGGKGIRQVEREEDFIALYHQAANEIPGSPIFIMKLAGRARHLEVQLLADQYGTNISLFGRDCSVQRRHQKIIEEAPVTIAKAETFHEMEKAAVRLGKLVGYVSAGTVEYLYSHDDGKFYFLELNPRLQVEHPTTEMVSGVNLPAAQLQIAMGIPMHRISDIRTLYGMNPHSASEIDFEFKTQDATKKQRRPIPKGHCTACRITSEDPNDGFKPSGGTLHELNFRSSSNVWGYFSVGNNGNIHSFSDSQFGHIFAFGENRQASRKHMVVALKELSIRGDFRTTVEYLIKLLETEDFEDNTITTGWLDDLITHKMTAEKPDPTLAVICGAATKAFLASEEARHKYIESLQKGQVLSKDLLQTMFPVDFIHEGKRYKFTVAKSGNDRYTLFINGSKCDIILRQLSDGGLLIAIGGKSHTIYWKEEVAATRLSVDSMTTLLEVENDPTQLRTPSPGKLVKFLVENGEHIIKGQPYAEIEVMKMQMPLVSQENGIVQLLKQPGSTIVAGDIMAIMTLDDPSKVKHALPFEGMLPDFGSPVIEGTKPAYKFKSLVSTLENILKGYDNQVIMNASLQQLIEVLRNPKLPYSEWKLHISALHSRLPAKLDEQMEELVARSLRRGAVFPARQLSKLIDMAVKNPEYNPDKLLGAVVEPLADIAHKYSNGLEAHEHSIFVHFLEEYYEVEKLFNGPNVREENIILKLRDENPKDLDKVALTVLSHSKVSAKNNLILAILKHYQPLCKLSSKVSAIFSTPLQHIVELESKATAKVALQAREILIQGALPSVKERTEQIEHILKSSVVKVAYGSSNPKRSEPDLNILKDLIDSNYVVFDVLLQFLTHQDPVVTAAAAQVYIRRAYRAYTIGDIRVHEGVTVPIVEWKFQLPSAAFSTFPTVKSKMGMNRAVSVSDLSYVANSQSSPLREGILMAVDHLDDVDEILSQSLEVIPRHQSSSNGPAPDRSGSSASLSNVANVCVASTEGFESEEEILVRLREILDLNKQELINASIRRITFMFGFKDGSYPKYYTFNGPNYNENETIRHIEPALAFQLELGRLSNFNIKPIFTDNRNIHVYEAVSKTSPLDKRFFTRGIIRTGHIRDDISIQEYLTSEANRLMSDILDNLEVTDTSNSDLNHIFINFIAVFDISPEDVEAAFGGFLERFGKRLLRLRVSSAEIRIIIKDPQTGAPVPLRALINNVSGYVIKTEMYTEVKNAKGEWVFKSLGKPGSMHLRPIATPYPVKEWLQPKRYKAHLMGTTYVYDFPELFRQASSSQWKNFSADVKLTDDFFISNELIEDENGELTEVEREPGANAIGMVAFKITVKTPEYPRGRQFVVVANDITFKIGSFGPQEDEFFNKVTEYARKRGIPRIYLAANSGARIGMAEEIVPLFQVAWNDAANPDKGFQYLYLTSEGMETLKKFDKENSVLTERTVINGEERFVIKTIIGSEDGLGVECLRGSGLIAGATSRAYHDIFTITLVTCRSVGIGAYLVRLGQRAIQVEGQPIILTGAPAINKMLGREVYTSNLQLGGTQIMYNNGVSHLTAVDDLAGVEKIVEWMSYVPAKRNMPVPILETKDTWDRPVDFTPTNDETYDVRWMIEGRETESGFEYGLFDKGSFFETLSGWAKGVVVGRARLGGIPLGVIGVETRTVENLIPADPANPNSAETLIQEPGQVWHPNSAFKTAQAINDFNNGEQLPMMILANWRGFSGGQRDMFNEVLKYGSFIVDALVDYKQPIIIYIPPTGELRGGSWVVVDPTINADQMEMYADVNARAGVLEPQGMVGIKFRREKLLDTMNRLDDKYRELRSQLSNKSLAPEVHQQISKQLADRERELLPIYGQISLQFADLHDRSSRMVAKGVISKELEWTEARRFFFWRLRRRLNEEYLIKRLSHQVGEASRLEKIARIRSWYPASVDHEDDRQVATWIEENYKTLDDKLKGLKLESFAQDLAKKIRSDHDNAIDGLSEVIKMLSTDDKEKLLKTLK

Chain of Human ACC2 (O00763 whole entry): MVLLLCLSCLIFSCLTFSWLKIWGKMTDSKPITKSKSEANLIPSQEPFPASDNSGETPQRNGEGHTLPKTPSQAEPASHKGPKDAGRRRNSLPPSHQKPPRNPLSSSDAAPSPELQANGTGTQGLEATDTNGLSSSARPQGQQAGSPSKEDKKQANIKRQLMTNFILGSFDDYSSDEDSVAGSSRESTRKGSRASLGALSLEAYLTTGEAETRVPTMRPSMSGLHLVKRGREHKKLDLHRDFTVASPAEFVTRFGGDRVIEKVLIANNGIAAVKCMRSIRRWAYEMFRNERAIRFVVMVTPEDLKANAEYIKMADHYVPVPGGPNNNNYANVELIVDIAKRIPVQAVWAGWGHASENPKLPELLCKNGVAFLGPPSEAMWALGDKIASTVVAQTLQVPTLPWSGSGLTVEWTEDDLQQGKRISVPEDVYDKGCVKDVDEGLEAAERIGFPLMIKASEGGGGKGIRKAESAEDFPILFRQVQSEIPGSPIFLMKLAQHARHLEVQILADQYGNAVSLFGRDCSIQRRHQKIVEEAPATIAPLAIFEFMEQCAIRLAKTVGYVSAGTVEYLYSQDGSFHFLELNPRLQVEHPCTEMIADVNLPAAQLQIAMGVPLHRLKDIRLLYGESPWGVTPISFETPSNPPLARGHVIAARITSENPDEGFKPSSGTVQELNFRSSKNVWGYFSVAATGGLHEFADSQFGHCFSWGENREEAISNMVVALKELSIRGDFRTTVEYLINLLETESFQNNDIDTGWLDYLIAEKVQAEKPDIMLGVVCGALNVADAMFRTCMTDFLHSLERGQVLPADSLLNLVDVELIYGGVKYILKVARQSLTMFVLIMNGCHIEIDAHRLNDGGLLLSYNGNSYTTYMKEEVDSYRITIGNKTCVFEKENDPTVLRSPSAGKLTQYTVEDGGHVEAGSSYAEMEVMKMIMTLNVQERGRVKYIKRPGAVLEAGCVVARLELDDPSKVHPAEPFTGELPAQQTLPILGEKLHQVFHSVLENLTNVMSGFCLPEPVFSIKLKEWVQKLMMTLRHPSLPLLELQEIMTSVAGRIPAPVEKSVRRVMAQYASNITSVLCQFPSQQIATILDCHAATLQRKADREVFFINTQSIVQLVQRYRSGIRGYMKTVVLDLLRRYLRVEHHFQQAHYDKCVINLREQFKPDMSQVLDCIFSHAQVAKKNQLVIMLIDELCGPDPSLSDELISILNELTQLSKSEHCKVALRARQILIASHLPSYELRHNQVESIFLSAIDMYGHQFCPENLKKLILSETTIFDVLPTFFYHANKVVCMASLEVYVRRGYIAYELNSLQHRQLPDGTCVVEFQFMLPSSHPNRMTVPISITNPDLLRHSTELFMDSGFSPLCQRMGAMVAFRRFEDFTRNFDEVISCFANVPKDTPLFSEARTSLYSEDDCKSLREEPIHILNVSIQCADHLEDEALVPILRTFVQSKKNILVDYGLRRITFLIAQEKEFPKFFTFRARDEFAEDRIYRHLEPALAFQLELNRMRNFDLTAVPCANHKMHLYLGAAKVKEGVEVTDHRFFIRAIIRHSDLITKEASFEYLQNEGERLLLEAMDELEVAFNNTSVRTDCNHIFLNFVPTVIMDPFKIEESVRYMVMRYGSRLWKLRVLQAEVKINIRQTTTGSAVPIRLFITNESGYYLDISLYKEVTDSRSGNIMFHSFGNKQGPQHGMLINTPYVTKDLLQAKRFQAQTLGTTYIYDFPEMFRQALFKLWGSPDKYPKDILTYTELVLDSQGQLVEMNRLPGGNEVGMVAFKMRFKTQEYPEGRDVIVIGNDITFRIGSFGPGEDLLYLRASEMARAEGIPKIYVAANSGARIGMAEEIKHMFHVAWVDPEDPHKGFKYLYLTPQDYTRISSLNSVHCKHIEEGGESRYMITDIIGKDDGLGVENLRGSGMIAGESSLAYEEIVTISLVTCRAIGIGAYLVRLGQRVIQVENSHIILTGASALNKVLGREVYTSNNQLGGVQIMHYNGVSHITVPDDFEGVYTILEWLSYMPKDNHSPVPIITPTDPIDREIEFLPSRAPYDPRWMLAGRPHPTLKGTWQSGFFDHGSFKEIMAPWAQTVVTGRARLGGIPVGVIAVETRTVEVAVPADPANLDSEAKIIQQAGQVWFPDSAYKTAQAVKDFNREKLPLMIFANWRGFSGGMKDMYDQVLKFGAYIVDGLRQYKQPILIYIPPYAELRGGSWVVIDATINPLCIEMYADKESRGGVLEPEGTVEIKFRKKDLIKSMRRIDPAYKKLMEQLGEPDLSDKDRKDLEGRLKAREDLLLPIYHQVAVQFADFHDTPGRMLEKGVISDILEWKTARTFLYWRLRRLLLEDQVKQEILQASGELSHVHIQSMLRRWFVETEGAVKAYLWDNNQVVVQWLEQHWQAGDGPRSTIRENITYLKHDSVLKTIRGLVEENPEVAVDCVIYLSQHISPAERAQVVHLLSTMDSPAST

| SMILES | Barley Powdery Mildew Control at 10 ppm [1] | IC50 [2] | MIC [3] | MIC [4] | MIC [5] | IC90 [6] | IC90 [7] | IC90 [8] | IC90 [9] | IC90 [10] | IC90 [11] | IC90 [12] | IC90 [13] | pest or weed control at 50 ppm [14] | IC50 [15] |
| --- | --- | --- | --- | --- | --- | --- | --- | --- | --- | --- | --- | --- | --- | --- | --- |
| COCCO[C@@H](Cn1c(=O)n([C@@H]2CCCN(C)C2=O)c(=O)c2c(C)c(-n3nccn3)sc21)c1cc(F)ccc1OC [Compound I-32, 1-((R)-2-(5-fluoro-2-methoxyphenyl)-2-(2-methoxy-ethoxy)ethyl)-5-methyl-3-((R)-1-methyl-2-oxopiperidin-3-yl)-6-(2H-1,2,3-triazol-2-yl)thieno[2,3-d]pyrimidine-2,4(1H,3H)-dione] | C (provided a compound having from 25 to 49% control of barley powdery mildew) | 0.01 to 0.1 µM | 2.1 to 4 µg/mL (≈ 3.58 to 6.82 µM) | 2.1 to 4 µg/mL (≈ 3.58 to 6.82 µM) | 2.1 to 4 µg/mL (≈ 3.58 to 6.82 µM) | 10 µg/mL (≈ 17 µM) | > 50 µg/mL | > 50 µg/mL | 2 µg/mL (≈ 3.41 µM) | > 50 µg/mL | > 50 µg/mL | > 50 µg/mL | > 50 µg/mL | 70 to 84% | 0.0007 to 0.002 µM |
| COCCO[C@@H](Cn1c(=O)n([C@@H]2CCNC2=O)c(=O)c2c(C)c(-n3cccn3)sc21)c1cc(F)ccc1OC [Compound I-42, 1-((R)-2-(5-fluoro-2-methoxyphenyl)-2-(2-methoxy-ethoxy)ethyl)-5-methyl-3-((R)-2-oxopyrrolidin-3-yl)-6-(1H-pyrazol-1-yl)thieno[2,3-d]pyrimidine-2,4(1H,3H)-dione] | D (provided a compound having <25% control of barley powdery mildew) | 0.01 to 0.1 µM | 2.1 to 4 µg/mL (≈ 3.77 to 7.17 µM) | 2.1 to 4 µg/mL (≈ 3.77 to 7.17 µM) | 2.1 to 4 µg/mL (≈ 3.77 to 7.17 µM) | > 50 µg/mL | > 50 µg/mL | > 50 µg/mL | > 50 µg/mL | > 50 µg/mL | > 50 µg/mL | > 50 µg/mL | > 50 µg/mL | 25 to 49% | 0.002 to 0.01 µM |
| COCCO[C@@H](Cn1c(=O)n([C@@H]2CCN(C)C2=O)c(=O)c2c(C)c(-n3cccn3)sc21)c1cc(F)ccc1OC [Compound I-44, 1-((R)-2-(5-fluoro-2-methoxyphenyl)-2-(2-methoxy-ethoxy)ethyl)-5-methyl-3-((R)-1-methyl-2-oxopyrrolidin-3-yl)-6-(1H-pyrazol-1-yl)thieno[2,3-d]pyrimidine-2,4(1H,3H)-dione] | D (provided a compound having <25% control of barley powdery mildew) | 0.01 to 0.1 µM | 2.1 to 4 µg/mL (≈ 3.67 to 7 µM) | 2.1 to 4 µg/mL (≈ 3.67 to 7 µM) | 2.1 to 4 µg/mL (≈ 3.67 to 7 µM) | > 50 µg/mL | > 50 µg/mL | > 50 µg/mL | 10 µg/mL (≈ 17.5 µM) | > 50 µg/mL | > 50 µg/mL | > 50 µg/mL | > 50 µg/mL | 70 to 84% | 0.002 to 0.01 µM |
| COCCO[C@@H](Cn1c(=O)n([C@H]2CCCNC2=O)c(=O)c2c(C)c(-n3cccn3)sc21)c1cc(F)ccc1OC [Compound I-45, 1-((R)-2-(5-fluoro-2-methoxyphenyl)-2-(2-methoxy-ethoxy)ethyl)-5-methyl-3-((S)-2-oxopiperidin-3-yl)-6-(I H-pyrazol-1-yl)thieno[2,3-d]pyrimidine-2,4(1H,3H)-dione] | D (provided a compound having <25% control of barley powdery mildew) | 0.01 to 0.1 µM | 2.1 to 4 µg/mL (≈ 3.67 to 7 µM) | 2.1 to 4 µg/mL (≈ 3.67 to 7 µM) | 2.1 to 4 µg/mL (≈ 3.67 to 7 µM) | > 50 µg/mL | > 50 µg/mL | > 50 µg/mL | > 50 µg/mL | > 50 µg/mL | > 50 µg/mL | > 50 µg/mL | > 50 µg/mL | 50 to 69% | 0.002 to 0.01 µM |
| COCCO[C@@H](Cn1c(=O)n([C@@H]2CCCNC2=O)c(=O)c2c(C)c(-n3cccn3)sc21)c1cc(F)ccc1OC [Compound I-46, 1-((R)-2-(5-fluoro-2-methoxyphenyl)-22-(2-methoxy-ethoxy)ethyl)-5-methyl-3-((R)-2-oxopiperidin-3-yl)-6-(I H-pyrazol-1-yl)thieno[2,3-d]pyrimidine-2,4(1H,3H)-dione] | D (provided a compound having <25% control of barley powdery mildew) | 0.1 to 1 µM | 2.1 to 4 µg/mL (≈ 3.67 to 7 µM) | 2.1 to 4 µg/mL (≈ 3.67 to 7 µM) | 2.1 to 4 µg/mL (≈ 3.67 to 7 µM) | > 50 µg/mL | > 50 µg/mL | > 50 µg/mL | > 50 µg/mL | > 50 µg/mL | > 50 µg/mL | > 50 µg/mL | > 50 µg/mL | 50 to 69% | 0.01 to 0.1 µM |
| COCCO[C@@H](Cn1c(=O)n([C@H]2CCCN(C)C2=O)c(=O)c2c(C)c(-n3cccn3)sc21)c1cc(F)ccc1OC [Compound I-47, 1-((R)-2-(5-fluoro-2-methoxyphenyl)-2-(2-methoxy-ethoxy)ethyl)-5-methyl-3-((S)-1-methyl-2-oxopiperidin-3-yl)-6-(I H-pyrazol-1-yl)thieno[2,3-d]pyrimidine-2,4(1H,3H)-dione] | D (provided a compound having <25% control of barley powdery mildew) | 0.1 to 1 µM | 2.1 to 4 µg/mL (≈ 3.59 to 6.83 µM) | 2.1 to 4 µg/mL (≈ 3.59 to 6.83 µM) | 2.1 to 4 µg/mL (≈ 3.59 to 6.83 µM) | > 50 µg/mL | > 50 µg/mL | > 50 µg/mL | > 50 µg/mL | > 50 µg/mL | > 50 µg/mL | > 50 µg/mL | > 50 µg/mL | 50 to 69% | 0.002 to 0.01 µM |
| COCCO[C@@H](Cn1c(=O)n([C@@H]2CCCN(C)C2=O)c(=O)c2c(C)c(-n3cccn3)sc21)c1cc(F)ccc1OC [Compound I-48, 1-((R)-2-(5-fluoro-2-methoxyphenyl)-2-(2-methoxy-ethoxy)ethyl)-5-methyl-3-((R)-1-methyl-2-oxopiperidin-3-yl)-6-(1H-pyrazol-1-yl)thieno[2,3-d]pyrimidine-2,4(1H,3H)-dione] | C (provided a compound having from 25 to 49% control of barley powdery mildew) | 0.1 to 1 µM | 2.1 to 4 µg/mL (≈ 3.59 to 6.83 µM) | 2.1 to 4 µg/mL (≈ 3.59 to 6.83 µM) | 2.1 to 4 µg/mL (≈ 3.59 to 6.83 µM) | > 50 µg/mL | > 50 µg/mL | > 50 µg/mL | > 50 µg/mL | > 50 µg/mL | > 50 µg/mL | > 50 µg/mL | > 50 µg/mL | 50 to 69% | 0.01 to 0.1 µM |
| COc1ccc(F)cc1[C@H](Cn1c(=O)n([C@H]2CCCNC2=O)c(=O)c2c(C)c(-n3nccn3)sc21)OCCO [Compound I-70, 1-((R)-2-(5-fluoro-2-methoxyphenyl)-2-(2-hydroxy-ethoxy)ethyl)-5-methyl-3-((S)-2-oxopiperidin-3-yl)-6-(2H-1,2,3-triazol-2-yl)thieno[2,3-d]pyrimidine-2,4(1H,3H)-dione] | D (provided a compound having <25% control of barley powdery mildew) | 0.01 to 0.1 µM | 2.1 to 4 µg/mL (≈ 3.76 to 7.16 µM) | 2.1 to 4 µg/mL (≈ 3.76 to 7.16 µM) | 2.1 to 4 µg/mL (≈ 3.76 to 7.16 µM) | 2 µg/mL (≈ 3.58 µM) | 10 µg/mL (≈ 17.9 µM) | > 50 µg/mL | 2 µg/mL (≈ 3.58 µM) | 2 µg/mL (≈ 3.58 µM) | > 50 µg/mL | 10 µg/mL (≈ 17.9 µM) | > 50 µg/mL | 50 to 69% | 0.0007 to 0.002 µM |
| COc1ccc(F)cc1[C@H](Cn1c(=O)n([C@@H]2CCCNC2=O)c(=O)c2c(C)c(-n3nccn3)sc21)OCCO [Compound I-71, 1-((R)-2-(5-fluoro-2-methoxyphenyl)-2-(2-hydroxy-ethoxy)ethyl)-5-methyl-3-((R)-2-oxopiperidin-3-yl)-6-(2H-1,2,3-triazol-2-yl)thieno[2,3-d]pyrimidine-2,4(1H,3H)-dione] | D (provided a compound having <25% control of barley powdery mildew) | 0.002 to 0.01 µM | 2.1 to 4 µg/mL (≈ 3.76 to 7.16 µM) | 2.1 to 4 µg/mL (≈ 3.76 to 7.16 µM) | 2.1 to 4 µg/mL (≈ 3.76 to 7.16 µM) | 2 µg/mL (≈ 3.58 µM) | 10 µg/mL (≈ 17.9 µM) | > 50 µg/mL | 2 µg/mL (≈ 3.58 µM) | 2 µg/mL (≈ 3.58 µM) | > 50 µg/mL | 2 µg/mL (≈ 3.58 µM) | > 50 µg/mL | 50 to 69% | 0.0007 to 0.002 µM |
